Consider 6 compounds from patent US20230123135A1 (priority 2020, published 2023).

Entries after “also recorded” stand apart in the source; their conditions may differ. Where two headings read alike, the source gives them in different places.

One data set is described as follows: in vitro. To be noted: African green monkey.
The test system of a further data set is SARS-CoV-2. Kind of data set: microbe, parasite or virus in culture. The class given is cell-based. To be noted: for IC50: read-out: IC50, inhibition of SARS-CoV-2 infection.
Data set [1] has as its system primary rat peritoneal macrophages.
The subject of data set [2] is TNF-α. Kind of data set: animal or person. The class given is in vivo, Mus musculus (BALB/c). On the set-up: TNF-α production in BALF: unit not given here. To be noted: for inhibition of TNF-α production at 3 mg/kg: Mus musculus, read-out: inhibitory rate of TNF-α production (negative control as 100%).
Data set [3] concerns IL-6. Nature of the data set: animal or person. The class given is in vivo, Mus musculus (BALB/c). To be noted: for inhibition of IL-6 production (%) at 3 mg/kg: Mus musculus, read-out: inhibitory rate of IL-6 production (negative control as 100%).
Data set [4] relates to IL-1β. Kind of data set: animal or person. To be noted: for Inhibition rate of IL-1β production (%) at 3 mg/kg: Mus musculus, read-out: inhibitory rate of IL-1β production (negative control as 100%); for IL-1 beta Mean AUC (baseline-adjusted): mouse, in vivo. The class given is in vivo, Mus musculus (BALB/c).
Data set [5] deals with primary rat peritoneal macrophages. The source holds these as a separate data set.
For the next data set, the system named is IFN-β mRNA. The class given is cell-based, mouse.
The subject of the next data set is COX-2. The class given is cell-based, mouse.
In data set [6] the test system is TNF-α. The class given is cell-based, rat. To be noted: 24 h, LPS 100 ng/mL; read-out: IC50, secretion of TNF-α.
A further data set relates to COX-2 mRNA. The class given is cell-based, mouse.
The next data set deals with TNF-α mRNA. The class given is cell-based, mouse.
The test system of a further data set is iNOS. The class given is cell-based, mouse.
The subject of a further data set is NF-κB. Nature of the data set: Western blot, NF-κB (p50, p65) protein in RAW264.7 macrophages. To be noted: 2.5-10 μM 30 min pretreatment, LPS 1 μg/mL 15 min. The class given is cell-based, mouse. In general terms: In western blotting, separated proteins are transferred to a membrane and probed.
Another data set has as its system NO production. Type of data set: cell-based, mouse. To be noted: read-out: IC50 for inhibition of NO production.
Another data set deals with iNOS mRNA. The class given is cell-based, mouse.
The test system of data set [7] is TNF-α. Type of data set: cell-based, mouse.
The next data set deals with IL-1β mRNA. Type of data set: cell-based, mouse.
In data set [8] the test system is NF-κB transcriptional activity. The class given is cell-based, mouse.
A further data set deals with human telomerase. To be noted: cited from earlier work.
For data set [9], the system named is IL-1β. The class given is cell-based, rat.
The next data set relates to SARS-CoV-2 infection. On the set-up: species or system person. To be noted: in vivo.
For data set [10] the following is noted: in vivo.
The subject of the next data set is PGE2 production. The class given is cell-based, mouse.
The test system of data set [11] is IL-6. The class given is cell-based, rat.
Another data set relates to IκB. Nature of the data set: Western blot, IκB degradation in RAW264.7 macrophages. The class given is cell-based, mouse. To be noted: 2.5-10 μM 30 min pretreatment, LPS 1 μg/mL 15 min.
The subject of data set [12] is IL-1β. Type of data set: cell-based, mouse.
Setting [13] is: Severe acute respiratory syndrome coronavirus 2, Vero, 24 h.
Where [14] appears, read: 3 μM, in the absence of significant cell death.

What is called IC50 is the concentration that inhibits the measured activity by half. `Cc1cccc(C)c1OCC(=O)N[C@@H](Cc1ccccc1)[C@@H](O)C[C@H](Cc1ccccc1)NC(=O)[C@H](C(C)C)N1CCCNC1=O` [lopinavir] yielded a CC50 in “in vitro” of more than 50 µM. In the data set with SARS-CoV-2, the “Selectivity index (SI), CC50/IC50” value worked out at 3.81. In the data set with SARS-CoV-2 (setting [13]), the IC50 is 13.1 µM.

Triton-X [reference compound]: the “cell viability (MTT) compared with vehicle” value in data set [1] was “low cell viability”.

As to `C[C@@H]1C[C@H]2[C@@H]3CCC4=CC(=O)C=C[C@]4(C)[C@@]3(F)[C@@H](O)C[C@]2(C)[C@@]1(O)C(=O)CO` [Dexamethasone], the inhibition of TNF-α production at 3 mg/kg came out at 25% in the data set on TNF-α [2] (1 h); 28% in the data set with TNF-α [2] (2 h); 33% with TNF-α [2] (4 h); 28% with TNF-α [2] (6 h); 9% in the data set with TNF-α [2] (12 h). Moreover, in the data set on TNF-α [2] (mouse, in vivo), the “TNF-alpha Mean AUC (baseline-adjusted)” value turned out to be 2815.4 pg·h/mL. Also, the inhibition of IL-6 production (%) at 3 mg/kg in the data set on IL-6 [3] (1 h) is 59%; in the data set with IL-6 [3] (2 h), 43%; with IL-6 [3] (4 h) it was 59%; in the data set with IL-6 [3] (6 h), 20%; in the data set on IL-6 [3] (12 h), 16%; in the data set on IL-6 [3] (24 h) it was 51%. Further, in the data set with IL-6 [3] (mouse, in vivo), the “IL-6 Mean AUC (baseline-adjusted)” value amounted to 54684.9 pg·h/mL. Besides, the Inhibition rate of IL-1β production (%) at 3 mg/kg in the data set on IL-1β [4] (4 h) was 69%; in the data set with IL-1β [4] (6 h), 67%; in the data set with IL-1β [4] (12 h), 77%. Further, the “IL-1 beta Mean AUC (baseline-adjusted)” value in the data set with IL-1β [4] came to 2637.5 pg·h/mL.

With `C[C@@H]1CC[C@@]2(OC1)O[C@H]1[C@@H](O)[C@H]3[C@@H]4CC[C@H]5C[C@@H](O[C@@H]6O[C@H](CO)[C@H](O[C@@H]7O[C@H](CO)[C@@H](O)[C@H](O[C@@H]8OC[C@@H](O)[C@H](O)[C@H]8O)[C@H]7O[C@@H]7O[C@H](CO)[C@H](O)[C@H](O[C@@H]8O[C@H](CO)[C@@H](O)[C@H](O)[C@H]8O)[C@H]7O)[C@H](O)[C@H]6O)[C@H](O)C[C@]5(C)[C@H]4CC[C@]3(C)[C@H]1[C@@H]2C` [Digitonin, reference compound], the “cytotoxicity (CytoTox-GLO) compared with vehicle” value in data set [5] is reported as “high toxicity”.

Consider sodium meta-arsenite [SMA], for which the “expression of IFN-β mRNA” value in the data set on IFN-β mRNA is “no effect”. The “TNF-α production in BALF” value in the data set with TNF-α [2] (mouse, in vivo) amounted to 794. Moreover, the “TNF-alpha Mean AUC (baseline-adjusted)” value in the data set with TNF-α [2] (mouse, in vivo, 1.03 mg/kg) stood at 7984.4 pg·h/mL; in the data set with TNF-α [2] (mouse, in vivo, 1.54 mg/kg), 6064.8 pg·h/mL; with TNF-α [2] (mouse, in vivo, 2.05 mg/kg), 4215.8 pg·h/mL. Besides, the COX-2 protein expression result in the data set on COX-2 is given as “slightly inhibited”. Further, the IC50 is 2.3 µM in the data set with TNF-α [6]; approximately 2.87 µM with NO production; 5.7 µM in data set [1] (read-out: IC50 for cell viability, 24 h, LPS 100 ng/mL, MTT); 0.8 µM in the data set with IL-1β [9] (24 h, LPS 100 ng/mL, read-out: IC50, secretion of IL-1β); 4.25 µM with SARS-CoV-2; 0.5 µM with IL-6 [11] (24 h, LPS 100 ng/mL, read-out: IC50, secretion of IL-6). Further, the CC50 in the data set on Vero cells is 21.1 µM. Besides, the “inhibitory rate of IL-6 production (negative control as 100%)” value in the data set with IL-6 [3] (mouse, in vivo) was determined as 60%. Further, the “IL-6 Mean AUC (baseline-adjusted)” value in the data set on IL-6 [3] (mouse, in vivo, 1.03 mg/kg) came out at 165404.0 pg·h/mL; in the data set on IL-6 [3] (mouse, in vivo, 1.54 mg/kg), 128034.8 pg·h/mL; in the data set with IL-6 [3] (mouse, in vivo, 2.05 mg/kg) it was 78963.1 pg·h/mL. Further, the “COX-2 mRNA expression” value in the data set with COX-2 mRNA was “not influenced”. Besides, in the data set on TNF-α mRNA, the “mRNA level of TNF-α” value is “significantly decreased”. In addition, the iNOS protein expression result in the data set with iNOS is reported as “significantly inhibited”. Further, the “cytotoxicity (CytoTox-GLO) compared with vehicle” value in [5] (24 h, LPS 100 ng/mL) is “concentration-dependent increase in cytotoxicity”. The NF-κB protein level result in the data set on NF-κB was “markedly decreased”. Also, in the data set on iNOS mRNA, the “iNOS mRNA expression” value is given as “significantly inhibited”. The TNF-α protein expression entry in the data set with TNF-α [7] is given as “significantly inhibited”. In data set [1] (24 h, LPS 100 ng/mL), the “cell viability (MTT) compared with vehicle” value is “concentration-dependent decrease in viability”. Moreover, the “expression of IL-1β mRNA” value in the data set on IL-1β mRNA was “no effect”. In data set [8], the “LPS-induced SEAP expression (NF-κB transcriptional activity)” value is recorded as “inhibited LPS-induced SEAP expression significantly”. Besides, in the data set on human telomerase, the “inhibition of human telomerase” value is given as “potent inhibitor”. For the same compound, the “secretion of IL-1β” value in the data set on IL-1β [9] (setting [14]) is recorded as “complete inhibition”. In addition, the “symptoms of SARS-CoV-2 infection after taking SMA” value in the data set with SARS-CoV-2 infection was “effective in alleviating or treating the symptoms of SARS-CoV-2 infection; also recorded: Chest tightness and pain relieved; also recorded: Temporary relief of symptoms”. In addition, the “time until fully metabolised and excreted from the body after taking it” value in [10] came to 72 h. Also, the “IL-1 beta Mean AUC (baseline-adjusted)” value with IL-1β [4] (1.03 mg/kg) came to 4272.9 pg·h/mL; with IL-1β [4] (1.54 mg/kg), 3738.3 pg·h/mL; in the data set with IL-1β [4] (2.05 mg/kg), 3045.8 pg·h/mL. In the data set on PGE2 production, the “inhibition of PGE2 production” value is recorded as 20%. In addition, in the data set with IL-6 [11] (setting [14]), the “secretion of IL-6” value was “complete inhibition”. Moreover, the IκB degradation result in the data set on IκB is given as “markedly inhibited”. In addition, in the data set with IL-1β [12], the IL-1β protein expression result was “significantly inhibited”.

Compound `CCC(CC)COC(=O)[C@H](C)N[P@](=O)(OC[C@H]1O[C@@](C#N)(c2ccc3c(N)ncnn23)[C@H](O)[C@@H]1O)Oc1ccccc1` [remdesivir] returned a CC50 in the data set “in vitro” of more than 50 µM. The half-inhibitory concentration (IC50) in the data set with SARS-CoV-2 (setting [13]) turned out to be 5.27 µM.
